Experimental data reported in patent US7772255B2, “Method of treating tumors with azaxanthones” (Supratek Pharma, Inc., priority 2005, dated 2010).

Legend:
[1] = tested on: metastatic (Stage III-Stage IV) breast cancer; assay: Amlexanox monotherapy in advanced metastatic breast cancer resistant to prior chemotherapy (Example 8); assay type: in vivo, human; conditions: 500 mg orally twice daily; baseline until nine months after administration and follow up
Description: In this study 44 women patients with metastatic (Stage III-Stage IV) breast cancer who have relapsed following prior cytotoxic chemotherapy regiments containing anthracyclines and/or taxanes are treated by administering 500 mg amlexanox twice daily with two amlexanox 250 mg tablets prepared in Example 3 taken twice daily orally as outpatients. This treatment is carried out for determining the overall (complete and partial) response rate. In this group, the stable disease rate of patients treated with amlexanox is determined. In addition, in each of the treated patients, the time to disease progression is also determined. The results of this study are compared to untreated patients with metastatic (Stage III-Stage IV) breast cancer who have relapsed following the same prior cytotoxic chemotherapy regiment. […] The patients are evaluated by standard WHO and/or RECIST criteria for response and disease status at six week intervals. […] All of the patients during the evaluation period are evaluated by the measurement of the tumors, survival and determination of any progression of the disease in the patient. Stability is measured during each evaluation to determine if there is any increase in the size and amount of tumors from the proceeding period and if there is no subsequent appearance of any other malignancies in the patient. […]

[2] = tested on: S100A4-positive CSML100 cells; assay: Metastasis formation by S100A4-positive CSML100 cells in animal model (Example 6); assay type: in vivo, mouse; conditions: 100 mg/kg i.v. daily for 10 days
Description: In both groups the injection volume was 5 ml/kg. The treatments were started from the day following the tumor cell implantation for 10 consecutive days. The animal body weight was recorded as an index of treatment toxicity during the experiment.
Starting from the day 10 after the cell implantation, one animal of the control group was sacrificed every day to monitor the metastasis development. All animals were sacrificed on day 18 for routine metastasis inspection. […] The metastatic colonies on the organ surface were enumerated immediately following the removal of the organ.
The data were expressed as mean±SEM for the number of metastatic sites.

[3] = tested on: B16F10/DX cells; assay: B16 experimental metastasis model (Example 26); assay type: in vivo, mouse; conditions: B16F10/DX i.v. in C57BL/6 mice; Amlexanox 100 mg/kg daily p.o.; mean±SEM
Description: Amlexanox solution for injections was prepared according to the Example 4. B16F10/DX cell (2.0×10^5 cells per animal) were inoculated intravenously in female C57BL//6 mice (6-7 weeks old) and animals were then divided randomly into 4 groups (n=9 except for control group): 1) intact control (n=12, saline); 2) Amlexanox (100 mg/kg, daily p.o. administration); 3) TPT (2.0 mg/kg i.v. administration on day 1, 4, and 7); 5) Amlexanox (daily p.o. 100 mg/kg)+TPT (i.v. 2.0 mg/kg on day 1, 4, and 7). Intact control received oral administration with 10 ml/kg (volume/body weight) of saline, while Amlexanox was administrated orally and daily with a dose of 100 mg/kg in a volume of 10 ml/kg. The treatments were started from the day following the tumor cell implantation until the end of the protocol. However, TPT was administrated intravenously only on day 1, 4, and 7 after tumor implantation. The animal body weight was recorded as an index of treatment toxicity during the experiment.
The data in Table show metastasis formation in the lung in the mice implanted with B16F10/DX cells. The data are expressed as mean±SEM for the number of metastatic sites on the lung surface.

[4] = tested on: CSML100 cells; assay: Spontaneous metastasis model in mice (Example 27); assay type: in vivo, mouse
Description: Amlexanox solution for injections was prepared according to the Example 4. CSML100 cells (2.0×10^6 cells per animal) were inoculated subcutaneously to female A/J mice (6-7 weeks old). The animals were then divided randomly into 2 groups (n=9): Intact control (saline) and Amlexanox treated (100 mg/kg, daily i.v. injection for 10 consecutive days). The treatment started from the day following the tumor implantation. The measurement of tumor size was performed since day 11. On day 24, the tumors were surgically removed. The lung metastasis development was analyzed 40 days after the tumor resection.
The data in Table show spontaneous lung metastasis formation in this tumor model. The data are expressed as mean±SEM for the number of metastatic sites on the lung surface.

## CC(C)c1ccc2oc3nc(N)c(C(=O)O)cc3c(=O)c2c1 [Amlexanox, 2-amino-7-isopropyl-1-azaxanthone-3-carboxylic acid]
[1]
  percentage of patients with no progression of the disease by WHO and/or RECIST criteria, compared to the non-treated group: greater percentage of the patients in the group of patients treated with the amlexanox show no progression of the disease
[2]; CSML100 cells i.v. in female A/J mice, day 18, mean±SEM
  Average of lung metastasis number per animal: 18.8 ± 2.3
[2]; lung metastasis number, day 18
  Trial/control × 100%: 48.5%
[2]; mice inoculated CSML100 cells
  inhibition on metastases formation: significant inhibition on metastases formation
[2]; non-significant, A/J mice
  body weight loss: less than 10%
[3]
  Lung Metastasis Number per Animal: 71.3 ± 15.5
[4]; CSML100 s.c. in A/J mice, 100 mg/kg i.v. daily for 10 days, tumors removed day 24, mean±SEM, one animal (26 metastases) excluded
  Lung metastasis number 40 days after s.c. tumor resection: 1.00 ± 0.55
[4]; CSML100 s.c. in A/J mice, 100 mg/kg i.v. daily injection for 10 days
  Subcutaneous tumor size on day 14: 0.05 ± 0.02 g
[4]; lung metastasis number 40 days after s.c. tumor resection, 100 mg/kg i.v. daily for 10 days
  Trial/control × 100%: 96.3%
